According to patent US11639343B2, “Compounds targeting and degrading BCR-ABL protein and its antitumor application” (ShanghaiTech University, priority 2019, dated 2023):
Like-named read-outs stand apart in the source and are kept apart here.

What was measured:
U937 (BCR-ABL-) cells = test: CCK-8 proliferation inhibition, U937 cells; assay type: cell-based, human; conditions: read-out: Proliferative inhibitory activity (IC50, nM) U937 (BCR-ABL-);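 further: Ten-point threefold dilution series, absorbance at 450 nm after 2 h with CCK-8 reagent, DMSO as negative control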
K562 (BCR-ABL+) cells = test: CCK-8 proliferation inhibition, K562 cells; assay type: cell-based, human; conditions: read-out: Proliferative inhibitory activity (IC50, nM) K562 (BCR-ABL+);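 further: Ten-point threefold dilution series starting at 10 µM, absorbance at 450 nm after 2 h with CCK-8, DMSO as negative control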
HEK293 (BCR-ABL-) cells = test: CCK-8 proliferation inhibition, HEK293 cells; conditions: read-out: Proliferative inhibitory activity (IC50, nM) HEK293 (BCR-ABL-);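 further: Ten-point threefold dilution series starting at 10 µM, CCK-8 absorbance at 450 nm read after 2 h reagent incubation, DMSO-treated cells as negative control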
[1] = Homo sapiens, U-937, CCK-8, 48 hours of drug treatment, highest concentration 10 μM
[2] = Homo sapiens, K562, 48 h, CCK-8, 48 hours of drug treatment
[3] = CCK-8, 48 hours of drug treatment, highest concentration 10 μM
[4] = CCK-8, 48 hours of drug treatment

Row | Compound | IC50 (U937 (BCR-ABL-) cells; Homo sapiens, U-937, 48 h) [nM] | IC50 (K562 (BCR-ABL+) cells; Homo sapiens, K562, 48 h) [nM] | IC50 (U937 (BCR-ABL-) cells; [1]) [nM] | IC50 (K562 (BCR-ABL+) cells; [2]) [nM] | IC50 (HEK293 (BCR-ABL-) cells; Homo sapiens, HEK293, 48 h) [nM] | IC50 (U937 (BCR-ABL-) cells; [3]) [nM] | IC50 (K562 (BCR-ABL+) cells; [4]) [nM] | IC50 (HEK293 (BCR-ABL-) cells; [3]) [nM]
1 | COc1cc(Nc2c(C#N)cnc3cc(OCCCN4CCN(C)CC4)c(OC)cc23)c(Cl)cc1Cl [Bosutinib, reference compound] | > 10000 | 29.6 |  |  |  |  |  | 
2 | Cc1nc(Nc2ncc(C(=O)Nc3c(C)cccc3Cl)s2)cc(N2CCN(C(=O)CCNc3cccc4c3C(=O)N(C3CCC(=O)NC3=O)C4=O)CC2)n1 (centres unmarked) [SIAIS151074, N-(2-chloro-6-methylphenyl)-2-((6-(4-(3-((2-(2,6-dioxopiperidin-3-yl)-1,3-dioxoisoindolin-4-yl)amino)propanoyl)piperazin-1-yl)-2-methylpyrimidin-4-yl)amino)thiazole-5-carboxamide] |  |  | > 10000 | 6.8 | > 10000 |  |  | 
3 | Cc1nc(Nc2ncc(C(=O)Nc3c(C)cccc3Cl)s2)cc(N2CCN(C(=O)COCCOCC(=O)N[C@H](C(=O)N3C[C@H](O)C[C@H]3C(=O)NCc3ccc(-c4scnc4C)cc3)C(C)(C)C)CC2)n1 [SIAIS151076, N-(2-chloro-6-methylphenyl)-2-((6-(4-(2-(2-(2-(((S)-1-((2S,4R)-4-hydroxy-2-((4-(4-methylthiazol-5-yl)benzyl)carbamoyl)pyrrolidin-1-yl)-3,3-dimethyl-1-oxobutan-2-yl)amino)-2-oxoethoxy)ethoxy)acetyl)piperazin-1-yl)-2-methylpyrimidin-4-yl)amino)thiazole-5-carboxamide] |  |  |  |  |  | > 10000 | 670 | > 10000
4 | Cc1nc(Nc2ncc(C(=O)Nc3c(C)cccc3Cl)s2)cc(N2CCN(C(=O)CCOCCOCCOCCC(=O)N[C@H](C(=O)N3C[C@H](O)C[C@H]3C(=O)NCc3ccc(-c4scnc4C)cc3)C(C)(C)C)CC2)n1 [SIAIS151077, N-(2-chloro-6-methylphenyl)-2-((6-(4-((S)-15-((2S,4R)-4-hydroxy-2-((4-(4-methylthiazol-5-yl)benzyl)carbamoyl)pyrrolidine-1-carbonyl)-16,16-dimethyl-13-oxo-4,7,10-trioxa-14-azaheptadecanoyl)piperazin-1-yl)-2-methylpyrimidin-4-yl)amino)thiazole-5-carboxamide] |  |  | > 10000 | 3430 | > 10000 |  |  | 
5 | Cc1nc(Nc2ncc(C(=O)Nc3c(C)cccc3Cl)s2)cc(N2CCN(C(=O)CCOCCOCCOCCOCCOCCC(=O)N[C@H](C(=O)N3C[C@H](O)C[C@H]3C(=O)NCc3ccc(-c4scnc4C)cc3)C(C)(C)C)CC2)n1 [SIAIS151079, N-(2-chloro-6-methylphenyl)-2-((6-(4-((S)-21-((2S,4R)-4-hydroxy-2-((4-(4-methylthiazol-5-yl)benzyl)carbamoyl)pyrrolidine-1-carbonyl)-22,22-dimethyl-19-oxo-4,7,10,13,16-pentaoxa-20-azatricosanoyl)piperazin-1-yl)-2-methylpyrimidin-4-yl)amino)thiazole-5-carboxamide] |  |  | > 10000 | 1610 | > 10000 |  |  | 
6 | Cc1nc(Nc2ncc(C(=O)Nc3c(C)cccc3Cl)s2)cc(N2CCN(C(=O)COCCOCC(=O)N[C@H](C(=O)N3C[C@H](O)C[C@H]3C(=O)NCc3ccc(-c4scnc4C)cc3)C(C)(C)C)CC2)n1 [SIAIS151080, N-(2-chloro-6-methylphenyl)-2-((6-(4-(2-(2-(2-(((S)-1-((2S,4R)-4-hydroxy-2-((4-(4-methylthiazol-5-yl)benzyl)carbamoyl)pyrrolidin-1-yl)-3,3-dimethyl-1-oxobutan-2-yl)amino)-2-oxoethoxy)ethoxy)acetyl)piperazin-1-yl)-2-methylpyrimidin-4-yl)amino)thiazole-5-carboxamide] |  |  | > 10000 |  | > 10000 |  | 2240 | 
7 | COc1cc(Nc2c(C#N)cnc3cc(OCCCN4CCN(C(=O)CC(=O)Nc5cccc6c5CN(C5CCC(=O)NC5=O)C6=O)CC4)c(OC)cc23)c(Cl)cc1Cl (centres unmarked) [SIAIS164104, 3-(4-(3-((3-cyano-4-((2,4-dichloro-5-methoxyphenyl)amino)-6-methoxyquinolin-7-yl)oxy)propyl)piperazin-1-yl)-N-(2-(2,6-dioxopiperidin-3-yl)-1-oxoisoindolin-4-yl)-3-oxopropanamide] |  |  | > 10000 | 811 | > 10000 |  |  | 
8 | COc1cc(Nc2c(C#N)cnc3cc(OCCCN4CCN(C(=O)CCCC(=O)Nc5cccc6c5CN(C5CCC(=O)NC5=O)C6=O)CC4)c(OC)cc23)c(Cl)cc1Cl (centres unmarked) [SIAIS164106, 5-(4-(3-((3-cyano-4-((2,4-dichloro-5-methoxyphenyl)amino)-6-methoxyquinolin-7-yl)oxy)propyl)piperazin-1-yl)-N-(2-(2,6-dioxopiperidin-3-yl)-1-oxoisoindolin-4-yl)-5-oxopentanamide] |  |  | > 10000 | 438 | > 10000 |  |  | 
9 | Cc1nc(Nc2ncc(C(=O)Nc3c(C)cccc3Cl)s2)cc(N2CCN(C(=O)CCCc3cn(CCCC(=O)N[C@H](C(=O)N4C[C@H](O)C[C@H]4C(=O)NCc4ccc(-c5scnc5C)cc4)C(C)(C)C)nn3)CC2)n1 [SIAIS164134, N-(2-chloro-6-methylphenyl)-2-((6-(4-(4-(1-(4-(((S)-1-((2S,4R)-4-hydroxy-2-((4-(4-methylthiazol-5-yl)benzyl)carbamoyl)pyrrolidin-1-yl)-3,3-dimethyl-1-oxobutan-2-yl)amino)-4-oxobutyl)-1H-1,2,3-triazol-4-yl)butanoyl)piperazin-1-yl)-2-methylpyrimidin-4-yl)amino)thiazole-5-carboxamide] |  |  | > 10000 | 12 | > 10000 |  |  | 
10 | Cc1nc(Nc2ncc(C(=O)Nc3c(C)cccc3Cl)s2)cc(N2CCN(C(=O)CCCCCCCCCCCCC(=O)N[C@H](C(=O)N3C[C@H](O)C[C@H]3C(=O)NCc3ccc(-c4scnc4C)cc3)C(C)(C)C)CC2)n1 [SIAIS164193, N-(2-chloro-6-methylphenyl)-2-((6-(4-(14-(((S)-1-((2S,4R)-4-hydroxy-2-((4-(4-methylthiazol-5-yl)benzyl)carbamoyl)pyrrolidin-1-yl)-3,3-dimethyl-1-oxobutan-2-yl)amino)-14-oxotetradecanoyl)piperazin-1-yl)-2-methylpyrimidin-4-yl)amino)thiazole-5-carboxamide] |  |  | > 10000 | 14.4 | > 10000 |  |  | 
11 | Cc1nc(Nc2ncc(C(=O)Nc3c(C)cccc3Cl)s2)cc(N2CCN(C(=O)CCCCCCCCCCCCCCC(=O)N[C@H](C(=O)N3C[C@H](O)C[C@H]3C(=O)NCc3ccc(-c4scnc4C)cc3)C(C)(C)C)CC2)n1 [SIAIS164194, N-(2-chloro-6-methylphenyl)-2-((6-(4-(16-(((S)-1-((2S,4R)-4-hydroxy-2-((4-(4-methylthiazol-5-yl)benzyl)carbamoyl)pyrrolidin-1-yl)-3,3-dimethyl-1-oxobutan-2-yl)amino)-16-oxohexadecanoyl)piperazin-1-yl)-2-methylpyrimidin-4-yl)amino)thiazole-5-carboxamide] |  |  | > 10000 | 32.3 | > 10000 |  |  | 
12 | Cc1nc(Nc2ncc(C(=O)Nc3c(C)cccc3Cl)s2)cc(N2CCN(C(=O)CCCCCOCCOCCOCCCCCC(=O)N[C@H](C(=O)N3C[C@H](O)C[C@H]3C(=O)NCc3ccc(-c4scnc4C)cc3)C(C)(C)C)CC2)n1 [SIAIS180147, N-(2-chloro-6-methylphenyl)-2-((6-(4-((S)-3-((2S,4R)-4-hydroxy-2-((4-(4-methylthiazol-5-yl)benzyl)carbamoyl)pyrrolidine-1-carbonyl)-2,2-dimethyl-5-oxo-11,14,17-trioxa-4-azatricosan-23-oyl)piperazin-1-yl)-2-methylpyrimidin-4-yl)amino)thiazole-5-carboxamide] |  |  | > 10000 | 14.9 | > 10000 |  |  | 
13 | Cc1nc(Nc2ncc(C(=O)Nc3c(C)cccc3Cl)s2)cc(N2CCN(C(=O)CCCCNC(=O)CCCCCCCCC(=O)N[C@H](C(=O)N3C[C@H](O)C[C@H]3C(=O)NCc3ccc(-c4scnc4C)cc3)C(C)(C)C)CC2)n1 [SIAIS184032, N1-(5-(4-(6-((5-((2-chloro-6-methylphenyl)carbamoyl)thiazol-2-yl)amino)-2-methylpyrimidin-4-yl)piperazin-1-yl)-5-oxopentyl)-N10-((S)-1-((2S,4R)-4-hydroxy-2-((4-(4-methylthiazol-5-yl)benzyl)carbamoyl)pyrrolidin-1-yl)-3,3-dimethyl-1-oxobutan-2-yl)decanediamide] |  |  | > 10000 | 72 | > 10000 |  |  | 
